Assay results published in ChEMBL document CHEMBL4359880, “PROTACs and Targeted Protein Degradation for Treating ALK-Mediated Cancers” (2019).

How the values were obtained:
SU-DHL-1 [1] = experiment: Cytotoxicity against human SUDHL1 cells assessed as cell growth at 100 nM incubated for 2.5 days by CCk8 assay relative to control; type: functional; conditions: SU-DHL-1, 60 h
SU-DHL-1 [2] = experiment: Cytotoxicity against human SUDHL1 cells assessed as cell growth at 12 nM incubated for 2.5 days by CCk8 assay relative to control; type: functional; conditions: SU-DHL-1, 60 h
SU-DHL-1 [3] = experiment: Cytotoxicity against human SUDHL1 cells assessed as cell growth at 40 nM incubated for 2.5 days by CCk8 assay relative to control; type: functional; conditions: SU-DHL-1, 60 h
[4] = biological target: T1, von Hippel-Lindau disease tumor suppressor/ALK tyrosine kinase receptor (Homo sapiens) (UniProt Q9UM73+P40337); experiment: Protac activity at VHL/ALK in human SUDHL1 cells assessed as increase in degradation of ALK at 30 nM by Western blot analysis relative to control; type: cell-based
[5] = biological target: T1, von Hippel-Lindau disease tumor suppressor/ALK tyrosine kinase receptor (Homo sapiens); experiment: Protac activity at VHL/ALK in human NCI-H3122 cells assessed as increase in degradation of ALK at 500 nM by Western blot analysis relative to control; type: cell-based

T1 sequence (P40337 whole entry partner): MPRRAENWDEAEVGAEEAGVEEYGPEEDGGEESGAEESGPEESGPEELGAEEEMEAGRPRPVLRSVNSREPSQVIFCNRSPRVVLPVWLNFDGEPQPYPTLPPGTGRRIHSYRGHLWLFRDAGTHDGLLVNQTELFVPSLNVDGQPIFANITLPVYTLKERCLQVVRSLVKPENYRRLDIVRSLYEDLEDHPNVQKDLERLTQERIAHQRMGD
T1 sequence (Q9UM73 19-1620 limits assumed): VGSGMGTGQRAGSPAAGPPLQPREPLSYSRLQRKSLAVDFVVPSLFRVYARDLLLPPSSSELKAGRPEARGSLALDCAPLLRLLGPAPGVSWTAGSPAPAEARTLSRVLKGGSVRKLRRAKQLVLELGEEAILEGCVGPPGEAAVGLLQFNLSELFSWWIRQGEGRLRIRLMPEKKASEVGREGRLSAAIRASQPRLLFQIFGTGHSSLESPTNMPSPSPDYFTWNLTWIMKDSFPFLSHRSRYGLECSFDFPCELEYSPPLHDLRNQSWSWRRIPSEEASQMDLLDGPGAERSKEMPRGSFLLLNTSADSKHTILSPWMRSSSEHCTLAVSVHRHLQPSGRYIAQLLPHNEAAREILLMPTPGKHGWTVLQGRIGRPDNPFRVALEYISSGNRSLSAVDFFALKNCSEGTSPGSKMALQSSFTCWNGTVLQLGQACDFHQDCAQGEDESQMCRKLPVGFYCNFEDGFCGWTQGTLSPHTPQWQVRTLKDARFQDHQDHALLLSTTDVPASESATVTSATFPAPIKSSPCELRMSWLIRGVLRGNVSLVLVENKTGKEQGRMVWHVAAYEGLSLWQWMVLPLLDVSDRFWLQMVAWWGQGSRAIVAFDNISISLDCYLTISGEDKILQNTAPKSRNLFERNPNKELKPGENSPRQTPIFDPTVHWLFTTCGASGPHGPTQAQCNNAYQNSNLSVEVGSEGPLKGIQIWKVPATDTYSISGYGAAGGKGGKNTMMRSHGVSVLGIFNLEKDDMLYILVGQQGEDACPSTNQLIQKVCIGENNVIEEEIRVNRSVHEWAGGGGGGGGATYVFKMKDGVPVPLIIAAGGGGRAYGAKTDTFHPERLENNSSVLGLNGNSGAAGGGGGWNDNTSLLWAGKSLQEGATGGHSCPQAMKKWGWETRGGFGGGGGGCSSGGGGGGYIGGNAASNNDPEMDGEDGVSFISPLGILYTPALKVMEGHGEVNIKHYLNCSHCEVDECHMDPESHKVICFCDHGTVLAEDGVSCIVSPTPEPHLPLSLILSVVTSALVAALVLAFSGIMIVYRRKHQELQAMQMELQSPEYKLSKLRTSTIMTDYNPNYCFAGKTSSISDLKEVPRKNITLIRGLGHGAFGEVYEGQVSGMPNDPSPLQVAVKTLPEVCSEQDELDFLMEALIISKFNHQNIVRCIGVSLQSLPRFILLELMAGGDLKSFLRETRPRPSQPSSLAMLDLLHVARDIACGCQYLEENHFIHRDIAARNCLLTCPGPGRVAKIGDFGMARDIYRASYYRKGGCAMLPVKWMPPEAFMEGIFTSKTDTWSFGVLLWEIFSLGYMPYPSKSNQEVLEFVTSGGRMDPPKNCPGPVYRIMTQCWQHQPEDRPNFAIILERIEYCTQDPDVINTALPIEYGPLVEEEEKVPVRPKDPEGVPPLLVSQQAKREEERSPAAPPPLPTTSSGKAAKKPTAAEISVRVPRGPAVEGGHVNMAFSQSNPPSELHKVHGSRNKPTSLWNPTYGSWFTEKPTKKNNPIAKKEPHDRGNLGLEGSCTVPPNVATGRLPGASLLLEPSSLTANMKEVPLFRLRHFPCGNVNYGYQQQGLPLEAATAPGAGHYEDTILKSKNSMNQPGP

| SMILES | growth, % of control at 0.1 µM (SU-DHL-1 [1]) [%] | growth, % of control at 0.012 µM (SU-DHL-1 [2]) [%] | growth, % of control at 0.04 µM (SU-DHL-1 [3]) [%] | Activity [4] [%] | Activity [5] [%] |
| --- | --- | --- | --- | --- | --- |
| Cc1cc(Nc2ncc(Cl)c(Nc3ccccc3S(=O)(=O)C(C)C)n2)c(OC(C)C)cc1C1CCN(CC(=O)NCCOCCOCCOCCOCCOCCNc2cccc3c2C(=O)N(C2CCC(=O)NC2=O)C3=O)CC1 (centres undefined) | 3.9 | 94.5 | 47.5 | > 80 | – |
| Cc1cc(Nc2ncc(Cl)c(Nc3ccccc3S(=O)(=O)C(C)C)n2)c(OC(C)C)cc1C1CCN(CC(=O)NCCOCCOCCOCCOCCNc2cccc3c2C(=O)N(C2CCC(=O)NC2=O)C3=O)CC1 (centres undefined) | 3.5 | 97.7 | 67 | > 80 | – |
| Cc1cc(Nc2ncc(Cl)c(Nc3ccccc3S(=O)(=O)C(C)C)n2)c(OC(C)C)cc1C1CCN(C(=O)CCCC(=O)N[C@H](C(=O)N2C[C@H](O)C[C@H]2C(=O)N[C@@H](C)c2ccc(-c3scnc3C)cc2)C(C)(C)C)CC1 | – | – | – | – | > 80 |
| Cc1cc(Nc2ncc(Cl)c(Nc3ccccc3S(=O)(=O)C(C)C)n2)c(OC(C)C)cc1C1CCN(CC(=O)NCCNc2cccc3c2C(=O)N(C2CCC(=O)NC2=O)C3=O)CC1 (centres undefined) | 2.1 | 80.6 | 30.5 | > 80 | – |
| Cc1cc(Nc2ncc(Cl)c(Nc3ccccc3S(=O)(=O)C(C)C)n2)c(OC(C)C)cc1C1CCN(C(=O)COCCOCC(=O)N[C@H](C(=O)N2C[C@H](O)C[C@H]2C(=O)N[C@@H](C)c2ccc(-c3scnc3C)cc2)C(C)(C)C)CC1 | – | – | – | – | > 80 |
